The record followed here is US20210355104A1, “ADENOSINE RECEPTOR BINDING COMPOUNDS” (Nikang Therapeuticsm Inc., priority 2018, published 2021).

Values joined by “and” are separate entries in the source; they are usually repeats but may differ in a detail not shown here. Equal entries are not always repeated.

Test [1] deals with T1, Adenosine A2A receptor (Homo sapiens, UniProt P29274). As to the kind of experiment: Adenosine A2A receptor competitive binding assay (Tag-lite HTRF). Conditions: Tag-lite adenosine A2A receptor ligand binding. On the procedure: Adenosine A2A Receptor Competitive Binding Assay
The Tag-lite adenosine A2A receptor ligand binding assay is a homogeneous alternative to radioligand binding assay and developed by Cisbio (Bedford, Mass.). We carried out this assay following Cisbio's instructions with minor modification. Pre-transfected, fluorescent donor-labelled cells (Cisbio Cat#: C1TT1A2A, 200 testes) was stored at −80° C. and thawed right before use. Cells were washed once with 5 ml TLB and gently resuspended in 2 ml TLB. 4 μl suspended cells was dispensed into each well of white low-volume 384-well plate (Greiner Bio-One). Serial dilutions of compounds were prepared in Tag-lite buffer (TLB, Cisbio Cat #: LABMED) to a DMSO concentration of 0.6%. After adding 4 μl of compound dilutions to each well, 4 μl60 nM Adenosine A2A receptor red antagonist fluorescent ligand (Cisbio Cat #: L0058RED) was dispensed to each well. The 384-well assay plate was centrifuged briefly and incubated at room temperature for 2 h. HTRF signals were measured using CIARIOstar plate reader (BMG Labtech).
(TR-FRET usually uses a lanthanide donor and a delayed reading to cut background.)

Test [2] has as its target T1, Adenosine A2A receptor. As to the kind of experiment: cAMP assay in 293A cells stably expressing the adenosine A2A receptor (CGS21680 stimulation, HTRF). The test is classed as cell-based. Set-up: expressed in transfected cells; host or cells: 293A cells (Invitrogen, Cat# R705-07) infected with A2A-expressing lentivirus (custom packaged by Biosettia), puromycin selected. The settings on record: 293A-A2AR cells, 0.1% BSA, values separated by / are repeat determinations. Background: Cyclic AMP is a second messenger, typically raised through Gs and lowered through Gi signalling.

The mark [3] stands for this setting: 2 h room temperature, values separated by / are repeat determinations.
Where [4] appears, read: 8 nM CGS, read-out: cAMP (nM) 0.1% BSA, 8 nM CGS.
The mark [5] stands for this setting: 1 uM CGS, read-out: cAMP (nM) 0.1% BSA, 1 uM CGS.

T1 sequence (P29274 whole entry): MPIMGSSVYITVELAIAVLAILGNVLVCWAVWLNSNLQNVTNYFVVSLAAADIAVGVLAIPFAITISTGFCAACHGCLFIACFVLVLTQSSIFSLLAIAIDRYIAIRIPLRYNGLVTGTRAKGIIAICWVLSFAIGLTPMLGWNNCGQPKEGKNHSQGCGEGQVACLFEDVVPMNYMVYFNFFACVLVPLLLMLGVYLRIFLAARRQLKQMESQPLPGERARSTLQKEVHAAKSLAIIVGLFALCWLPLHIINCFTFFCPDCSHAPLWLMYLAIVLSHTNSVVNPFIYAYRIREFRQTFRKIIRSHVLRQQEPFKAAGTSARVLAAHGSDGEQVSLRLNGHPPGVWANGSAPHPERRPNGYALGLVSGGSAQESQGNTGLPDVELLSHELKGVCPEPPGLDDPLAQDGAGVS

With `CNC(=O)COc1nc(N)nc(-c2ccccc2)c1-c1cc(C)nc(C(F)(F)F)c1` [Example 1, 2-((2-amino-5-(2-methyl-6-(trifluoromethyl)pyridin-4-yl)-6-phenylpyrimidin-4-yl)oxy)-N-methylacetamide], the IC50 at Adenosine A2A receptor [1] (setting [3]) is 11.1 nM; on Adenosine A2A receptor [2] (setting [4]), 40 nM and 17 nM; at Adenosine A2A receptor [2] (setting [5]) it was 4040 nM.

In the case of `Cc1cc(-c2c(OCC(=O)N(C)C)nc(N)nc2-c2ccccc2)cc(C(F)(F)F)n1` [Example 2, 2-((2-amino-5-(2-methyl-6-(trifluoromethyl)pyridin-4-yl)-6-phenylpyrimidin-4-yl)oxy)-N,N-dimethylacetamide], the IC50 on Adenosine A2A receptor [1] (setting [3]) was 30.5 nM; on Adenosine A2A receptor [2] (setting [4]), 6.8 nM and 3.4 nM.

For the compound `Cc1cc(-c2c(NCc3cccc(CO[C@H]4CCOC4)n3)nc(N)nc2-c2ccccc2)cc(C(F)(F)F)n1` [Example 4, (S)-5-(2-methyl-6-(trifluoromethyl)pyridin-4-yl)-6-phenyl-N4-((6-(((tetrahydrofuran-3-yl)oxy)methyl)pyridin-2-yl)methyl)pyrimidine-2,4-diamine], the IC50 is 139 nM at Adenosine A2A receptor [1] (setting [3]); 482 nM and 288 nM at Adenosine A2A receptor [2] (setting [4]); 23100 nM at Adenosine A2A receptor [2] (setting [5]).

With `Cc1cc(-c2c(OCc3cccc(CO[C@H]4CCOC4)n3)nc(N)nc2-c2ccccc2)cc(C(F)(F)F)n1` [Example 5, (S)-5-(2-methyl-6-(trifluoromethyl)pyridin-4-yl)-4-phenyl-6-((6-(((tetrahydrofuran-3-yl)oxy)methyl)pyridin-2-yl)methoxy)pyrimidin-2-amine], the IC50 turned out to be 8.97 nM on Adenosine A2A receptor [1] (setting [3]) and 11.5 nM on Adenosine A2A receptor [2] (setting [4]).

In the case of `Cc1cc(-c2c(OCCCN3CCN(c4ccc(F)cc4F)CC3)nc(N)nc2-c2ccccc2)cc(C(F)(F)F)n1` [Example 6, 4-(3-(4-(2,4-difluorophenyl)piperazin-1-yl)propoxy)-5-(2-methyl-6-(trifluoromethyl)pyridin-4-yl)-6-phenylpyrimidin-2-amine], the IC50 on Adenosine A2A receptor [1] (setting [3]) stood at 74.3 nM; on Adenosine A2A receptor [2] (setting [4]), 183 nM.

Turning to `Cc1cc(-c2c(OCc3cccc(CO[C@H]4CCOC4)n3)nc(N)nc2-c2ccc(C)o2)cc(C(F)(F)F)n1` [Example 7, (S)-5-(2-methyl-6-(trifluoromethyl)pyridin-4-yl)-4-(5-methylfuran-2-yl)-6-((6-(((tetrahydrofuran-3-yl)oxy)methyl)pyridin-2-yl)methoxy)pyrimidin-2-amine], the IC50 on Adenosine A2A receptor [1] (setting [3]) came to 58 nM; on Adenosine A2A receptor [2] (setting [4]), 380 nM.

Take `Cc1cc(-c2c(OCCc3ccccc3)nc(N)nc2-c2ccccc2)cc(C(F)(F)F)n1` [Example 8, 5-(2-methyl-6-(trifluoromethyl)pyridin-4-yl)-4-phenethoxy-6-phenylpyrimidin-2-amine]: the IC50 is 10.2 nM and 18 nM at Adenosine A2A receptor [1] (setting [3]); 7.4 nM and 7.7 nM at Adenosine A2A receptor [2] (setting [4]).

Consider `Cc1cc(-c2c(OCC(=O)N3CCOCC3)nc(N)nc2-c2ccccc2)cc(C(F)(F)F)n1` [Example 10, 2-((2-amino-5-(2-methyl-6-(trifluoromethyl)pyridin-4-yl)-6-phenylpyrimidin-4-yl)oxy)-1-morpholinoethan-1-one], for which the IC50 on Adenosine A2A receptor [1] (setting [3]) was 25.2 nM; on Adenosine A2A receptor [2] (setting [4]), 8.8 nM and 51.5 nM and 24.2 nM.

As to `CCN(CC)C(=O)COc1nc(N)nc(-c2ccco2)c1-c1cc(C)nc(C(F)(F)F)c1` [Example 11, 2-((2-amino-6-(furan-2-yl)-5-(2-methyl-6-(trifluoromethyl)pyridin-4-yl)pyrimidin-4-yl)oxy)-N,N-diethylacetamide], the IC50 came to 7.21 nM on Adenosine A2A receptor [1] (setting [3]) and 3.2 nM on Adenosine A2A receptor [2] (setting [4]).

Turning to `CCN(CC)C(=O)COc1nc(N)nc(-c2ccc(C)o2)c1-c1cc(C)nc(C(F)(F)F)c1` [Example 12, 2-((2-amino-5-(2-methyl-6-(trifluoromethyl)pyridin-4-yl)-6-(5-methylfuran-2-yl)pyrimidin-4-yl)oxy)-N,N-diethylacetamide], the values for the IC50 on Adenosine A2A receptor [1] (setting [3]) and on Adenosine A2A receptor [2] (setting [4]) were 13.8 nM and 2 nM, respectively.

Regarding `CCN(CC)C(=O)[C@@H](C)Oc1nc(N)nc(-c2ccccc2)c1-c1cc(C)nc(C(F)(F)F)c1` [Example 13, (R)-2-((2-amino-5-(2-methyl-6-(trifluoromethyl)pyridin-4-yl)-6-phenylpyrimidin-4-yl)oxy)-N,N-diethylpropanamide], the IC50 stood at 303 nM on Adenosine A2A receptor [1] (setting [3]) and 161 nM on Adenosine A2A receptor [2] (setting [4]).

Turning to `CCN(CC)C(=O)[C@H](C)Oc1nc(N)nc(-c2ccccc2)c1-c1cc(C)nc(C(F)(F)F)c1` [Example 14, (S)-2-((2-amino-5-(2-methyl-6-(trifluoromethyl)pyridin-4-yl)-6-phenylpyrimidin-4-yl)oxy)-N,N-diethylpropanamide], the results for the IC50 at Adenosine A2A receptor [1] (setting [3]) and on Adenosine A2A receptor [2] (setting [4]) were 900 nM and 10000 nM, respectively.

`CCN(CC)C(=O)COc1nc(N)nc(-c2ccccc2)c1-c1cc(C)nc(C(F)F)c1` [Example 15, 2-((2-amino-5-(2-(difluoromethyl)-6-methylpyridin-4-yl)-6-phenylpyrimidin-4-yl)oxy)-N,N-diethylacetamide]: the IC50 on Adenosine A2A receptor [1] (setting [3]) was 3.2 nM; at Adenosine A2A receptor [2] (setting [4]), 0.5 nM and 2.1 nM.

As for `CCN(CC)C(=O)COc1nc(N)nc(-c2ccccc2)c1-c1cc(C)nc(C(C)(F)F)c1` [Example 16, 2-((2-amino-5-(2-(1,1-difluoroethyl)-6-methylpyridin-4-yl)-6-phenylpyrimidin-4-yl)oxy)-N,N-diethylacetamide], the IC50 is 1.47 nM on Adenosine A2A receptor [1] (setting [3]) and 6.5 nM on Adenosine A2A receptor [2] (setting [4]).

As for `CCN(CC)C(=O)COc1nc(N)nc(-c2ccccc2)c1-c1cc(C)nc(C(F)(F)CC)c1` [Example 17, 2-((2-amino-5-(2-(1,1-difluoropropyl)-6-methylpyridin-4-yl)-6-phenylpyrimidin-4-yl)oxy)-N,N-diethylacetamide], the IC50 on Adenosine A2A receptor [1] (setting [3]) worked out at 9.01 nM; at Adenosine A2A receptor [2] (setting [4]), 7.5 nM.

Consider `CCN(CC)C(=O)COc1nc(N)nc(-c2ccc(F)cc2)c1-c1cc(C)nc(C(F)F)c1` [Example 28, 2-([2-amino-5-[2-(difluoromethyl)-6-methylpyridin-4-yl]-6-(4-fluorophenyl)pyrimidin-4-yl]oxy)-N,N-diethylacetamide], for which the IC50 was 7.56 nM on Adenosine A2A receptor [1] (setting [3]); 0.44 nM and 1.3 nM at Adenosine A2A receptor [2] (setting [4]).

`CCNC(=O)COc1nc(N)nc(-c2ccccc2)c1-c1cc(C)nc(C(F)(F)F)c1` [Example 29, 2-([2-amino-5-[2-methyl-6-(trifluoromethyl)pyridin-4-yl]-6-phenylpyrimidin-4-yl]oxy)-N-ethylacetamide]: the IC50 at Adenosine A2A receptor [1] (setting [3]) is 7.74 nM; at Adenosine A2A receptor [2] (setting [4]), 2 nM and 2.7 nM.

As for `CNC(=O)COc1nc(N)nc(-c2ccc(F)cc2)c1-c1cc(C)nc(C(F)F)c1` [Example 32, 2-((2-amino-5-(2-(difluoromethyl)-6-methylpyridin-4-yl)-6-(4-fluorophenyl)pyrimidin-4-yl)oxy)-N-methylacetamide], the IC50 at Adenosine A2A receptor [1] (setting [3]) is 13.9 nM; on Adenosine A2A receptor [2] (setting [4]), 6.1 nM and 6.7 nM.

Consider `CCNC(=O)COc1nc(N)nc(-c2ccc(F)cc2)c1-c1cc(C)nc(C(F)F)c1` [Example 39, 2-((2-amino-5-(2-(difluoromethyl)-6-methylpyridin-4-yl)-6-(4-fluorophenyl)pyrimidin-4-yl)oxy)-N-ethylacetamide], for which the IC50 on Adenosine A2A receptor [1] (setting [3]) is 7.2 nM and 6.4 nM; on Adenosine A2A receptor [2] (setting [4]) it was 0.42 nM and 0.57 nM and 2.2 nM.

Turning to `Cc1cc(-c2c(OCC(=O)NC(C)C)nc(N)nc2-c2ccc(F)cc2)cc(C(F)F)n1` [Example 41, 2-((2-amino-5-(2-(difluoromethyl)-6-methylpyridin-4-yl)-6-(4-fluorophenyl)pyrimidin-4-yl)oxy)-N-isopropylacetamide], the IC50 at Adenosine A2A receptor [1] (setting [3]) amounted to 6.7 nM; on Adenosine A2A receptor [2] (setting [4]), 4.1 nM.

In the case of `COCCNC(=O)COc1nc(N)nc(-c2ccc(F)cc2)c1-c1cc(C)nc(C(F)F)c1` [Example 45, 2-((2-amino-5-(2-(difluoromethyl)-6-methylpyridin-4-yl)-6-(4-fluorophenyl)pyrimidin-4-yl)oxy)-N-(2-methoxyethyl)acetamide], the IC50 at Adenosine A2A receptor [1] (setting [3]) is 25.7 nM; on Adenosine A2A receptor [2] (setting [4]), 66 nM and 8.9 nM.

For `Cc1cc(-c2c(OCCCS(C)(=O)=O)nc(N)nc2-c2ccc(F)cc2)cc(C(F)F)n1` [Example 46, 5-(2-(difluoromethyl)-6-methylpyridin-4-yl)-4-(4-fluorophenyl)-6-(3-(methylsulfonyl)propoxy)pyrimidin-2-amine], the IC50 on Adenosine A2A receptor [1] (setting [3]) was 5.7 nM and 5.9 nM; on Adenosine A2A receptor [2] (setting [4]), 0.45 nM and 0.84 nM and 2.1 nM; at Adenosine A2A receptor [2] (setting [5]) it was 1780 nM and 714 nM.

As to `Cc1cc(-c2c(OCc3nnn(CC4CC4)n3)nc(N)nc2-c2ccc(F)cc2)cc(C(F)F)n1` [Example 220, 4-((2-(cyclopropylmethyl)-2H-tetrazol-5-yl)methoxy)-5-(2-(difluoromethyl)-6-methylpyridin-4-yl)-6-(4-fluorophenyl)pyrimidin-2-amine], the IC50 on Adenosine A2A receptor [1] (HTRF) was 14 nM.

`CCn1cnnc1COc1nc(N)nc(-c2ccc(F)cc2)c1-c1cc(C)nc(C(F)F)c1` [Example 222, 5-(2-(difluoromethyl)-6-methylpyridin-4-yl)-4-((4-ethyl-4H-1,2,4-triazol-3-yl)methoxy)-6-(4-fluorophenyl)pyrimidin-2-amine] yielded an IC50 on Adenosine A2A receptor [1] (HTRF) of 15 nM.
